The values below come from paper PMC8837544, “Pharmacological inhibition of MERTK induces in vivo retinal degeneration: a multimodal imaging ocular safety assessment” (Archives of Toxicology, 2022).

Molecules are shown by their SMILES. Values after ≈ are worked out from the molar mass of the structure shown. Values joined by “and” are separate entries in the source; they are usually repeats but may differ in a detail not shown here. Equal entries are not always repeated.

For data set [1], the system named is retina. The conditions noted are these: mouse, cited from earlier work.
The target of data set [2] is T1, Axl (Homo sapiens, UniProt P30530). The protocol:
(§1) Biochemical assays for Mer, Axl, Tyro3 and Flt3 were performed using a Rapidfire LCMS method as previously described (Nissink et al. [2021]). Cellular assays for pMer, pAxl, pTyro3, pFLT3 were performed in transiently transfected Cos-7 (Monkey: African green) cell lines as previously described. The macrophage efferocytosis assay was performed as previously described (Clark et al. [2019]).

The target of another data set is Flt3 (Homo sapiens, UniProt P36888). The procedure: as §1
The next data set has as its target Mer (Homo sapiens, UniProt Q12866). The protocol: as §1
For the next data set, the system named is macrophage efferocytosis. Put plainly: Macrophage efferocytosis assay. It counts as cell-based.
A short description of another data set: LogD7.4. It counts as physicochemical. Particulars: pH 7.4.
A further data set can be described thus: Solubility. Type of data set: physicochemical.
The nature of data set [3]: Human plasma protein binding. Type of data set: in vitro ADME.
Data set [4] is described as follows: Mouse plasma protein binding. It counts as in vitro ADME.
Another data set is described as follows: HLM intrinsic clearance. Type of data set: in vitro ADME, human.
Data set [5] in a line: CaCo2 permeability and efflux. Type of data set: in vitro ADME. On the technique in general: Caco-2 monolayers are a common model of the intestinal barrier.
Another data set in a line: Mouse pharmacokinetics. Type of data set: in vivo.
The conditions of data set [6]: 200 mg/kg BID, C57BL/6 J mice, 28 days. The procedure: (§2) All in vivo experimental procedures were conducted in accordance with United Kingdom legislation (Animals (Scientific Procedures) Act, 1986) and were compliant with the ARRIVE guidelines. 6–7-week-old female (20–25 g) C57BL/6 J mice (Charles River Laboratories Ltd, UK) were acclimatized to the facility for 10 days and then randomized to groups based on bodyweight; vehicle control (n = 6, animals 1–6) and MERTK inhibitor treatment (n = 9, animals 7–15). Animals were treated via oral gavage with vehicle control (60% v/v 0.1 M HCl, 20% v/v PEG 400, 20% v/v purified water pH 3.5–4.5) or AZ14145845 (200 mg/kg). All animals were dosed twice daily with a dose volume of 10 mL/kg for 28 days, with the final dose being administered on the morning of Day 29. The dose interval between the first and second dose on each day was 8 h. […] Samples for histopathology were taken from 6 controls (animals 1–6), 8 treated animals (animals 7–11, 13–15) and for electron microscopy from 1 control (animal no. 1) and 3 treated animals (animals 8–10) and for MSI from 3 treated animals (animals 13–15).
A whole blood sample (32 µL) was collected via a tail vein prick into a K2-EDTA treated capillary tube, centrifuged at 1500g for 10 min at 4 °C, and plasma collected using a micropipette (non-EDTA Ref.no. 172292, Vitrex Medical A/S, Denmark). Samples were collected on Day 1 at 30 min, 2-h, 8-h (pre-second dose) and 24-h post the first dose. On days 7, 28, 29 samples were collected at 2-h post the first dose and at 8-h pre the second dose.

Data set [7] can be described thus: Bodyweight and tolerability in 28 day mouse safety study. Particulars: day 5 onwards, remainder of the study. The protocol: as §2
The nature of data set [8]: Ocular exposure in the rat (melanin binding). The conditions noted are these: for eye partition coefficient (Kp): iv infusion 2 μmol/kg/h, 4-h post infusion. It counts as in vivo. The procedure:
Male pigmented Long Evans and non-pigmented Han Wistar rats were treated via intravenous infusion of AZ14145845 at a dose of 2 μmol/kg/h in a TEG:DMA:H2O (1:1:1) formulation, dose volume 4 mL/kg. At 4-h post the 15-min intravenous infusion, the animals were killed and the eyes extracted and homogenized to determine the concentration of AZ14145845 in the eye.

Data set [9] relates to retina. Briefly: Retinal histopathology (H&E light microscopy) in 28 day mouse safety study. It counts as in vivo, C57BL/6 J mice.
Data set [10] relates to retina. Particulars: mouse, in vivo. The protocol: as §2
Data set [11] can be described thus: MALDI mass spectrometry imaging of whole eye sections (quantitative MSI). Type of data set: in vivo, C57BL/6 J mice. The protocol:
as §2

Data set [12] concerns ARPE19, human retinal epithelial cells. Put plainly: Phagocytosis of photoreceptor outer segments (POS) in human retinal cells. Particulars: 3 μM, 6-h incubation, FITC-labeled POS. It counts as cell-based. The procedure:
ARPE19, human retinal epithelial cells, were cultured in Dulbecco’s modified Eagle’s medium (DMEM/F12, supplemented with 10% fetal bovine serum). All culture materials were purchased from Thermo Fisher Scientific. Cells were seeded at 10,000 cells per well in CellCarrier imaging plates (Perkin Elmer) and cultured for up to 6 weeks to allow for polarization of the cell layer. On the day of treatment cells were washed three times in PBS and then incubated in serum free conditions with FITC-labeled POS at a concentration of 10 POS/cell and either DMSO or 3 μM of AZ14145845 in DMSO. Following incubation for 6 h, cells were washed with PBS to remove non-internalized POS and fixed in 4% PFA. Following staining of nuclei with Hoechst, cells were imaged using a […] ImageExpress Confocal microscope. Each well was imaged at 20 × with 16 images taken per well. Analysis modules were written using the custom module editor of MetaXpress vers 6.5.4.532. Nuclei were segmented and enumerated using the embedded count nuclei module. Individual POS particles were segmented and counted on a per image basis using the same custom module. Data are expressed as fold change in total POS per cell over control. Experiments were carried out a minimum of 3 times.

The next data set concerns the target hERG (Homo sapiens, UniProt Q12809). The conditions noted are these: read-out: hERG. In general terms: hERG is a cardiac potassium channel; its block is linked to QT prolongation.
The target of another data set is MERTK (Homo sapiens, UniProt Q12866). The conditions noted are these: 1 μM.
The target of data set [13] is T1, Axl. Particulars: 1 μM.
Another data set deals with MAP4K5 (KHS1) (Homo sapiens, UniProt Q9Y4K4). Particulars: 1 μM.
Data set [14] relates to Mer kinase Ba/F3 xenograft. Particulars: 200 mg/kg, ref McCoull et al. [2021]; cited from earlier work.
The mark [15] stands for this setting: animals 13-15, 200 mg/kg BID 28 days.

Chain of Mer (Q12866 21-999): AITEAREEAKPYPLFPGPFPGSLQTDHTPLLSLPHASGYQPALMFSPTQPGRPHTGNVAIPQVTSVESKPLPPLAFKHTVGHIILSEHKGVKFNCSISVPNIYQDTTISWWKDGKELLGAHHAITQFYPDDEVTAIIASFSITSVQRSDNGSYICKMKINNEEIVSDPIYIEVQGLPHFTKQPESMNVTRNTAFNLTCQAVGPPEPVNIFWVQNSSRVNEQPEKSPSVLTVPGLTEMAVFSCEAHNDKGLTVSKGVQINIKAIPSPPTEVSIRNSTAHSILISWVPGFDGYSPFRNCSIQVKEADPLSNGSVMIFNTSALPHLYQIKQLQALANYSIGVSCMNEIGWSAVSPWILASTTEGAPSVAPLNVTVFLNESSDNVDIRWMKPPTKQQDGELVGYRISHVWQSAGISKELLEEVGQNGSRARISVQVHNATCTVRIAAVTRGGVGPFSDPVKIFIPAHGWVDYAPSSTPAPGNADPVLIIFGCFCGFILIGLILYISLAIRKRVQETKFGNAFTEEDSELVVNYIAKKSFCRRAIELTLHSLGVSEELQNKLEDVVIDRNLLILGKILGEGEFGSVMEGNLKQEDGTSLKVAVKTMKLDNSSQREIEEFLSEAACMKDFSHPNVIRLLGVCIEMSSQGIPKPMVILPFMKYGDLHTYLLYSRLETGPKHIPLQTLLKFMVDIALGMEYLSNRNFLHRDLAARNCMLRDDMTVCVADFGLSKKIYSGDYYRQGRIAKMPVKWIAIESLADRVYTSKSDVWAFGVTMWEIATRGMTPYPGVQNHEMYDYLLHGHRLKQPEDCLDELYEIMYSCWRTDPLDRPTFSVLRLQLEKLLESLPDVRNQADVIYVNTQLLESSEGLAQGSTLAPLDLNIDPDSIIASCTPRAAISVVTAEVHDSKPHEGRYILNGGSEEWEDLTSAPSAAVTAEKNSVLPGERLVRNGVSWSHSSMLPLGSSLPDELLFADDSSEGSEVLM
T1 sequence (P30530 26-894): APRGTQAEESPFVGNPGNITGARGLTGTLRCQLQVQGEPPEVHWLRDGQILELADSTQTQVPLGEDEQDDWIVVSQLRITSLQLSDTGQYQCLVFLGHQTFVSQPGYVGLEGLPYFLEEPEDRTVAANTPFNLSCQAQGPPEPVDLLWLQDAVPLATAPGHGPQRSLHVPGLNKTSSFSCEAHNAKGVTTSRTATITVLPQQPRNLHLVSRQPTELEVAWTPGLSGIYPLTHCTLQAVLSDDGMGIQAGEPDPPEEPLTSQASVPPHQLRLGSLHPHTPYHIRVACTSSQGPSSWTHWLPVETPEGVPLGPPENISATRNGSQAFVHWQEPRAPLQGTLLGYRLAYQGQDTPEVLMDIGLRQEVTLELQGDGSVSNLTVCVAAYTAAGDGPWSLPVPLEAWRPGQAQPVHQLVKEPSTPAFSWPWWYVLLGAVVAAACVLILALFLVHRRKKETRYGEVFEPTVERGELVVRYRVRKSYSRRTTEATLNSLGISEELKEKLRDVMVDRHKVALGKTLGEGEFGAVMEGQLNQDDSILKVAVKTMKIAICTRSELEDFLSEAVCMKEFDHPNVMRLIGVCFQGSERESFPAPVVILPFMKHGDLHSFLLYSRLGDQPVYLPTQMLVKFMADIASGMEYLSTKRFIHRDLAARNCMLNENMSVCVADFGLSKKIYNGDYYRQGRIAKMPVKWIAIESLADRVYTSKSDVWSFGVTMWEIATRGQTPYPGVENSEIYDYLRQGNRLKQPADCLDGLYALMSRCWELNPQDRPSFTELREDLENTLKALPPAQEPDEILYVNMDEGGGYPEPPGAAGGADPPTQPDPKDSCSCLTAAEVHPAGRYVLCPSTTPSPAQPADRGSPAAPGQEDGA
Chain of Flt3 (P36888 27-993): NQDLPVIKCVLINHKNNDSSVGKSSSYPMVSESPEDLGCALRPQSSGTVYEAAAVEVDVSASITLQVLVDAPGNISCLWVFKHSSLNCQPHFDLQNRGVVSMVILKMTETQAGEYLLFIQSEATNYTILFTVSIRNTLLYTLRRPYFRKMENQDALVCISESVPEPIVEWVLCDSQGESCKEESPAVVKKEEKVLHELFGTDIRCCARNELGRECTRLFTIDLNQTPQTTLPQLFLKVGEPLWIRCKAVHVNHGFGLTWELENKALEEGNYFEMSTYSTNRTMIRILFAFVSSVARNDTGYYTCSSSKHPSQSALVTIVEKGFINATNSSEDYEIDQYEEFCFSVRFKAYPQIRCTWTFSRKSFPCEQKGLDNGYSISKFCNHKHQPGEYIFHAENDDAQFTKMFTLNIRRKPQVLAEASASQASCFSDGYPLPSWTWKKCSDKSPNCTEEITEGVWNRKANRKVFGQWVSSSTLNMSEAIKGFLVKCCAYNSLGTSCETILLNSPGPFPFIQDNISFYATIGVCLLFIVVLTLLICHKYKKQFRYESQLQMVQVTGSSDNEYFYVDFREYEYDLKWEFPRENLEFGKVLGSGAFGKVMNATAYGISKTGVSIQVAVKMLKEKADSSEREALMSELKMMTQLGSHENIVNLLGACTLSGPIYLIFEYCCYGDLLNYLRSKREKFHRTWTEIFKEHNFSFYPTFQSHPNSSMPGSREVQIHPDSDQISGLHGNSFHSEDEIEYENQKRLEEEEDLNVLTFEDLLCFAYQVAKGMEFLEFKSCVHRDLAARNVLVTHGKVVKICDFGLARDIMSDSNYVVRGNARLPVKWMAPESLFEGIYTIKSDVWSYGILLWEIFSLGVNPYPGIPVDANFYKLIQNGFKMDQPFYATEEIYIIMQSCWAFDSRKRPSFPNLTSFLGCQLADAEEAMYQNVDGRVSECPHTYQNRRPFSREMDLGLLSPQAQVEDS
Chain of MERTK (Q12866 21-999): as the sequence (Q12866 21-999) above
Chain of hERG (Q12809 whole entry): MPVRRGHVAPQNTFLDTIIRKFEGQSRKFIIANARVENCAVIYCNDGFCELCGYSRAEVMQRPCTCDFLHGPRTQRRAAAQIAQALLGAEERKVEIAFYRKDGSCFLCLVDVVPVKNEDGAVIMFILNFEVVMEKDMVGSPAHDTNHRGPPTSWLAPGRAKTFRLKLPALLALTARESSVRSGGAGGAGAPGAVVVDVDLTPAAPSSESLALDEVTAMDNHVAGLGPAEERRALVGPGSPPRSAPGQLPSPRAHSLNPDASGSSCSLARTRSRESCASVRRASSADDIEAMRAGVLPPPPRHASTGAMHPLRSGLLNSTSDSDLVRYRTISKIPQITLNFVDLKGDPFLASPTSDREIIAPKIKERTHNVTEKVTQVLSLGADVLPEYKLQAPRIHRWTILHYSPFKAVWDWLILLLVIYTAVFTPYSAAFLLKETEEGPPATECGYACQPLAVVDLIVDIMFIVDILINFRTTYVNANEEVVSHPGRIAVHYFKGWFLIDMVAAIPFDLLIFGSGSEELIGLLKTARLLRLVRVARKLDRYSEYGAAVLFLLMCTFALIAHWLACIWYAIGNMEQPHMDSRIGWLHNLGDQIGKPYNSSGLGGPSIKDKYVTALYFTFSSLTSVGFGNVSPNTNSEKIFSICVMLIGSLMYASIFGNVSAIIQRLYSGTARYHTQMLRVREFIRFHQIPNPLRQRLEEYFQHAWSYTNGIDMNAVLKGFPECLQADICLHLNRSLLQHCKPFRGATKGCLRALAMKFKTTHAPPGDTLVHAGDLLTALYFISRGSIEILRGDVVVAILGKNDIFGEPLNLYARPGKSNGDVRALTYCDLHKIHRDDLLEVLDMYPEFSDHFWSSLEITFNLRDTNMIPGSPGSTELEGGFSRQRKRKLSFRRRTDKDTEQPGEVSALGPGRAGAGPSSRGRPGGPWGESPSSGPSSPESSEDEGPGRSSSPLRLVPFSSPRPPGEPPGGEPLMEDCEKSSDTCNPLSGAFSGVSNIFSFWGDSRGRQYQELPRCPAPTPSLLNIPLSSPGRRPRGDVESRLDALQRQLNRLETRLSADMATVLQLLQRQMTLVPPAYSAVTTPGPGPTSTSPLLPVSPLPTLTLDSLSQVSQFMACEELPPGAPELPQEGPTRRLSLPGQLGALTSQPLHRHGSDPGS
Chain of MAP4K5 (KHS1) (Q9Y4K4 whole entry): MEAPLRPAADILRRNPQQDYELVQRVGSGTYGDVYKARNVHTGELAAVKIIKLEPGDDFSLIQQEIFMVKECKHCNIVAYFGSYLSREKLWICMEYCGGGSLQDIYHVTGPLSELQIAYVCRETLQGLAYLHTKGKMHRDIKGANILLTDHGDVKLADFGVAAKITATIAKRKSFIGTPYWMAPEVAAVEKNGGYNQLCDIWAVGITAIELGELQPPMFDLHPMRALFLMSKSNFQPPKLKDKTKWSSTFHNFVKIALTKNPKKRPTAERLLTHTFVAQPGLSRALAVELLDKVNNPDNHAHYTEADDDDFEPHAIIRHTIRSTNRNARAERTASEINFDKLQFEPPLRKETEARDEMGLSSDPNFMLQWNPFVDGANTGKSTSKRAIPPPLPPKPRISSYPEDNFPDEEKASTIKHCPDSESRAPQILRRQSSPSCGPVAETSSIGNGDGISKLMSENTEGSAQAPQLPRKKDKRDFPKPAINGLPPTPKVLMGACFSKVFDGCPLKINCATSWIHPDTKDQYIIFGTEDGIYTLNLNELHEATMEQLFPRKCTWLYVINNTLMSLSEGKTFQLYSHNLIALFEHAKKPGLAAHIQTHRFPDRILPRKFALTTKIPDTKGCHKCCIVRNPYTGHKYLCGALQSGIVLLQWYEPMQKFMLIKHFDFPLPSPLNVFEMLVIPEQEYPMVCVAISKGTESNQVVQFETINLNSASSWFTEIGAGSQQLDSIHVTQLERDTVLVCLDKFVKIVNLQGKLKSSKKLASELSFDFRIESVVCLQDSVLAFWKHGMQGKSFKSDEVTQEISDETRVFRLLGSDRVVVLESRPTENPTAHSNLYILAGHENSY

For the compound `CCCCNc1ncc2c(-c3ccc(F)cc3)nn(CC3CCC(N)CC3)c2n1` (stereo not shown) [UNC-569], in the data set on retina [1] (in vivo), the “electron microscopic evaluation of the retina” value is listed as “accumulation of membrane-bound multi-lamellated bodies in the RPE cells” and the “microscopic examination of H&E-stained tissue sections of the eye” value is reported as “No changes were detected”. Besides, the “duration of inhibition of MERTK phosphorylation in retinal tissue” value in the data set on retina [1] (post oral administration, ref Sayama et al. [2018]) is “up to 17 h”.

In general, Solubility refers to the dissolved amount per volume that the medium holds. Broadly, the bioavailability is dose-corrected exposure relative to a reference, in per cent. Read a high bioavailability as good availability. One may read the clearance as the volume of plasma or blood freed of the substance per unit of time. A low value points to inefficient removal. On to `Cc1cc(-c2c(C)nn(C)c2C)cnc1-c1nnc(N(C)Cc2ccc3ncc(-c4ccc(CN(C)C)cc4)n3c2)o1` [AZ14145845], for which the “Axl enzyme (pIC50)” value at Axl [2] is 7.9. Further, on Axl [2] (Cos-7 cell), the “Axl cell (pIC50)” value is reported as 7.0. Moreover, the “Flt3 enzyme (pIC50)” value at Flt3 is recorded as < 4.5/ < 4.5. The “Flt3 cell (pIC50)” value on Flt3 (Cos-7 cell) is recorded as < 4.5/ < 4.5. At Mer, the “Mer enzyme (pIC50)” value worked out at 9.0. Moreover, the “Mer cell (pIC50)” value on Mer (Cos-7 cell) is 7.7 and 7.8. In addition, in the data set with macrophage efferocytosis, the “Efferocytosis (pIC50)” value is 7.6. In the data set “LogD7.4”, this compound gave a LogD7.4 of 2.9. In the data set “Solubility”, this compound yielded a Solubility of 938 µM (≈ 527 µg/mL). Moreover, the “Human PPB (% free)” value in [3] was 14 % free. In addition, the “Mouse PPB (% free)” value in data set [4] is listed as 7.6 % free. Moreover, in the data set “HLM intrinsic clearance”, the “HLM CLint” value stood at 195 µL/min/mg protein. Besides, in [5], the CaCo2 efflux ratio is given as 10. In addition, in the data set “Mouse pharmacokinetics” (mouse), the bioavailability worked out at 15%, the clearance came out at 44 mL/min/kg and the “volume of distribution at steady state” value was found to be 3.7 L/kg. Besides, the “dose dependence of Cmax and AUC” value in “Mouse pharmacokinetics” (up to 200 mg/kg) is on record as “Dose linear increase”. In [6], the accumulation in plasma result is given as “no accumulation was observed”, the “average free cover over MERTK Cos-7 cell IC50 at Cmax” value came out at 90 fold and the “average free cover over MERTK Cos-7 cell IC50 at Cmin” value came to 21 fold. Moreover, the “weight gain above baseline” value in data set [7] is recorded as 3–6%. Further, in data set [8] (assumed consequence of melanin binding), the “difference in eye Kp, pigmented vs non-pigmented rats” value was “~ ten-fold”. Also, the “eye partition coefficient (Kp)” value in [8] (non-pigmented Han Wistar rat) is 2.5. For the same compound, the “eye partition coefficient (Kp)” value in [8] (pigmented Long Evans rat) turned out to be 19. Also, the “Total of any retinal degeneration/atrophy (of number examined)” value with retina [9] (200 mg/kg BID, 28 days, one eye per mouse) is given as 4 of 8. Besides, the “length of the retina affected by focal lesion” value in the data set on retina [9] (animal no. 10, lesion midway between optic nerve and peripheral limit) is listed as “approximately 25%”. For the same compound, the “extent of retina affected” value with retina [9] (animal no. 14, most severe microscopic changes) is on record as “entire length of retina”. Besides, the “length of the retina affected by focal lesions” value in the data set on retina [9] (animal numbers 8 and 9, lesions towards the periphery of the retina) is given as “approximately 20%”. The “Number of animals with no H&E findings” value in the data set with retina [9] (n = 8 treated mice, 200 mg/kg BID, 28 days, one eye per mouse, 200 mg/kg) was “four of the eight and 4”. Also, the “Moderate retinal degeneration/atrophy (number of animals)” value with retina [9] (n = 8 treated mice, diffuse distribution, animal 14) was determined as 1 with diffuse distribution. Also, the “Minimal retinal degeneration/atrophy (number of animals)” value in the data set with retina [9] (n = 8 treated mice, focal distribution, animals 8, 9, 10) is listed as 3 with focal distribution. Also, in the data set with retina [10], the “ultra-structural findings by TEM” value was “ultra-structural changes at the interface between the POS and the RPE”. The “A2E (RPE marker) in the posterior part of the eye by MSI” value in [11] (animal no. 14 compared to animals no. 13 and 15) is listed as “dramatic decrease”. Moreover, in [11] (setting [15]), the “Total concentration in the anterior region of the eye (QMSI)” value is listed as ~ 11 µM, the “Total concentration in the posterior region of the eye (QMSI)” value is listed as ~ 9 µM and the “Total concentration in the whole eye (QMSI)” value is listed as ~ 3 µM. The “ocular distribution by MSI” value in [11] (whole eye sections, 20 µm spatial resolution) is “largely localized in the pigmented retinal tissues of the RPE and choroid layers”. In addition, in data set [12], the “drop in the number of internalized POS” value is on record as about 60%. Besides, the IC50 at hERG is 5.7 µM. Further, the “inhibition of MERTK in kinome profiling” value against MERTK is reported as over 90%. The “inhibition of AXL in kinome profiling” value on Axl [13] was over 90%. In addition, the “inhibition of MAP4K5 (KHS1) in kinome profiling” value against MAP4K5 (KHS1) was over 75%. Moreover, the “efficacy in xenograft tumor model” value in data set [14] is on record as “showed efficacy”.
